This assay in a line: Inhibition of voltage sensitive calcium channel of embryonic chick dorsal root ganglion (DRG) cells.

In general, IC50 refers to the point on the concentration scale where inhibition reaches its midpoint. As for `COc1ccc(OC)c(-n2c(N)nc3cc(C(F)(F)F)ccc32)c1` [1-(2,5-Dimethoxy-phenyl)-5-trifluoromethyl-1H-benzoimidazol-2-ylamine], the IC50 came out at 32 µM.

(Values after BindingDB's records for doi:10.1016/0960-894X(96)00010-8 (1996).)
